Test results reported in ChEMBL document CHEMBL1137986, “Multidrug resistance reversal activity of permethyl ningalin B amide derivatives” (Bioorg Med Chem Lett, 2004).

What was measured:
HCT-116 [1] = test: Intrinsic cytotoxic activity against multidrug resistant HCT116/VM46 cell line; assay type: functional, cell-based; details: Homo sapiens
HCT-116 [2] = test: inhibitory activity of compound against multidrug resistance HCT116/VM46 cell line treated with Doxorubicin; assay type: functional, cell-based; details: Homo sapiens
HCT-116 [3] = test: Multi drug resistance reversal in HCT116/VM46 cell line treated with Doxorubicin; assay type: functional, Homo sapiens
HCT-116 [4] = test: inhibitory activity of compound against multidrug resistant HCT116/VM46 cell line treated with Vinblastine; assay type: functional, cell-based; details: Homo sapiens
HCT-116 [5] = test: Multi drug resistance reversal in HCT116/VM46 cell line treated with Vinblastine; assay type: functional, Homo sapiens
HCT-116 [6] = test: Intrinsic cytotoxic activity against wild type HCT116 cell line; assay type: functional, cell-based; details: Homo sapiens
HCT-116 [7] = test: Intrinsic cytotoxic activity against Multidrug resistant HCT116/VM46 cell line; assay type: functional, cell-based; details: Homo sapiens
HCT-116 [8] = test: inhibitory activity of compound against Multidrug resistant HCT116/VM46 cell line treated with Vinblastine; assay type: functional, cell-based; details: Homo sapiens
HCT-116 [9] = test: inhibitory activity of compound against Multidrug resistance HCT116/VM46 cell line treated with Doxorubicin; assay type: functional, cell-based; details: Homo sapiens
HCT-116 [10] = test: Multi drug resistance reversal in HCT116/VM46 cell line treated with Doxorubicin at a compound concentration 7.5 uM; assay type: functional, Homo sapiens
HCT-116 [11] = test: inhibitory activity of compound against Multidrug resistant HCT116/VM46 cell line treated with Doxorubicin at a compound concentration 7.5 uM; assay type: functional, cell-based; details: Homo sapiens
HCT-116 [12] = test: Multi drug resistance reversal in HCT116/VM46 cell line treated with Vinblastine at a compound concentration 7.5 uM; assay type: functional, Homo sapiens
HCT-116 [13] = test: inhibitory activity against Multidrug resistant HCT116/VM46 cell line treated with Vinblastine at a compound concentration 7.5 uM; assay type: functional, cell-based; details: Homo sapiens

## COc1ccc(C2CC2NNC(=O)c2c(-c3ccc(OC)c(OC)c3)c3c4cc(OC)c(OC)cc4oc(=O)c3n2CCc2ccc(OC)c(OC)c2)cc1 (stereo not drawn)
HCT-116 [1]
  IC50: > 100000 nM
HCT-116 [2]
  IC50: 100 nM
HCT-116 [3]
  Reversion: 100%
HCT-116 [4]
  IC50: 4 nM
HCT-116 [5]
  Reversion: 100%
HCT-116 [6]
  IC50: > 100000 nM

## COc1ccc(CCn2c(C(=O)NNCCc3cccs3)c(-c3ccc(OC)c(OC)c3)c3c4cc(OC)c(OC)cc4oc(=O)c32)cc1OC
HCT-116 [7]
  IC50: > 100000 nM
HCT-116 [3]
  Reversion: 100%
HCT-116 [8]
  IC50: 4 nM
HCT-116 [9]
  IC50: 100 nM
HCT-116 [5]
  Reversion: 100%
HCT-116 [6]
  IC50: > 100000 nM

## COCCN(CCOC)NC(=O)c1c(-c2ccc(OC)c(OC)c2)c2c3cc(OC)c(OC)cc3oc(=O)c2n1CCc1ccc(OC)c(OC)c1
HCT-116 [7]
  IC50: 15000 nM
HCT-116 [3]
  Reversion: 50%
HCT-116 [8]
  IC50: 9 nM
HCT-116 [9]
  IC50: 150 nM
HCT-116 [5]
  Reversion: 45%
HCT-116 [6]
  IC50: 25000 nM

## COc1cccc(CCNNC(=O)c2c(-c3ccc(OC)c(OC)c3)c3c4cc(OC)c(OC)cc4oc(=O)c3n2CCc2ccc(OC)c(OC)c2)c1
HCT-116 [7]
  IC50: 5000 nM
HCT-116 [3]
  Reversion: 100%
HCT-116 [8]
  IC50: 2 nM
HCT-116 [9]
  IC50: 100 nM
HCT-116 [5]
  Reversion: 200%
HCT-116 [6]
  IC50: 25000 nM

## COc1ccc(CCn2c(C(=O)NN[C@@H](C)C(=O)OC(C)(C)C)c(-c3ccc(OC)c(OC)c3)c3c4cc(OC)c(OC)cc4oc(=O)c32)cc1OC
HCT-116 [7]
  IC50: 4000 nM
HCT-116 [3]
  Reversion: 55%
HCT-116 [8]
  IC50: 8 nM
HCT-116 [9]
  IC50: 180 nM
HCT-116 [5]
  Reversion: 50%
HCT-116 [6]
  IC50: 7000 nM

## COc1ccc(CCn2c(C(=O)NCCNC(=O)c3c(-c4ccc(OC)c(OC)c4)c4c5cc(OC)c(OC)cc5oc(=O)c4n3CCc3ccc(OC)c(OC)c3)c(-c3ccc(OC)c(OC)c3)c3c4cc(OC)c(OC)cc4oc(=O)c32)cc1OC
HCT-116 [7]
  IC50: > 100000 nM
HCT-116 [3]
  Reversion: 10%
HCT-116 [8]
  IC50: 50 nM
HCT-116 [9]
  IC50: 750 nM
HCT-116 [5]
  Reversion: 10%
HCT-116 [6]
  IC50: > 100000 nM

## COC(=O)c1c(-c2ccc(OC)c(OC)c2)c2c3cc(OC)c(OC)cc3oc(=O)c2n1CCc1ccc(OC)c(OC)c1
HCT-116 [8]
  IC50: 2 nM
HCT-116 [5]
  Reversion: 100%

## COc1ccc(CCn2c(C(=O)NN3CCC4(CC3)OCCO4)c(-c3ccc(OC)c(OC)c3)c3c4cc(OC)c(OC)cc4oc(=O)c32)cc1OC
HCT-116 [7]
  IC50: 10000 nM
HCT-116 [3]
  Reversion: 100%
HCT-116 [8]
  IC50: 6 nM
HCT-116 [9]
  IC50: 100 nM
HCT-116 [5]
  Reversion: 67%
HCT-116 [6]
  IC50: 15000 nM

## COc1ccc(CCn2c(C(=O)NNCCc3c[nH]c4ccccc34)c(-c3ccc(OC)c(OC)c3)c3c4cc(OC)c(OC)cc4oc(=O)c32)cc1OC
HCT-116 [7]
  IC50: > 100000 nM
HCT-116 [3]
  Reversion: 100%
HCT-116 [8]
  IC50: 4 nM
HCT-116 [9]
  IC50: 100 nM
HCT-116 [5]
  Reversion: 100%
HCT-116 [6]
  IC50: > 100000 nM

## COc1ccc(CCNNC(=O)c2c(-c3ccc(OC)c(OC)c3)c3c4cc(OC)c(OC)cc4oc(=O)c3n2CCc2ccc(OC)c(OC)c2)cc1OC
HCT-116 [7]
  IC50: 5000 nM
HCT-116 [3]
  Reversion: 100%
HCT-116 [8]
  IC50: 4 nM
HCT-116 [9]
  IC50: 100 nM
HCT-116 [5]
  Reversion: 100%
HCT-116 [6]
  IC50: 5000 nM

## COc1ccc(CNNC(=O)c2c(-c3ccc(OC)c(OC)c3)c3c4cc(OC)c(OC)cc4oc(=O)c3n2CCc2ccc(OC)c(OC)c2)cc1
HCT-116 [7]
  IC50: 30000 nM
HCT-116 [3]
  Reversion: 80%
HCT-116 [8]
  IC50: 4 nM
HCT-116 [9]
  IC50: 120 nM
HCT-116 [5]
  Reversion: 100%
HCT-116 [6]
  IC50: 40000 nM

## COc1ccc(CCn2c(C(=O)NNC(c3ccccc3)c3ccccc3)c(-c3ccc(OC)c(OC)c3)c3c4cc(OC)c(OC)cc4oc(=O)c32)cc1OC
HCT-116 [7]
  IC50: 15000 nM
HCT-116 [3]
  Reversion: 80%
HCT-116 [8]
  IC50: 4 nM
HCT-116 [9]
  IC50: 120 nM
HCT-116 [5]
  Reversion: 100%
HCT-116 [6]
  IC50: 25000 nM

## COc1ccc(OC)c(CCNNC(=O)c2c(-c3ccc(OC)c(OC)c3)c3c4cc(OC)c(OC)cc4oc(=O)c3n2CCc2ccc(OC)c(OC)c2)c1
HCT-116 [7]
  IC50: 10000 nM
HCT-116 [3]
  Reversion: 100%
HCT-116 [8]
  IC50: 2 nM
HCT-116 [9]
  IC50: 100 nM
HCT-116 [5]
  Reversion: 200%
HCT-116 [6]
  IC50: 25000 nM

## COc1ccc(CCn2c(C(=O)NN)c(-c3ccc(OC)c(OC)c3)c3c4cc(OC)c(OC)cc4oc(=O)c32)cc1OC
HCT-116 [7]
  IC50: > 100000 nM
HCT-116 [3]
  Reversion: 40%
HCT-116 [8]
  IC50: 7 nM
HCT-116 [9]
  IC50: 240 nM
HCT-116 [5]
  Reversion: 60%
HCT-116 [6]
  IC50: > 100000 nM

## COc1ccc(CCn2c(C(=O)NNCCc3ccc(O)cc3)c(-c3ccc(OC)c(OC)c3)c3c4cc(OC)c(OC)cc4oc(=O)c32)cc1OC
HCT-116 [7]
  IC50: 10000 nM
HCT-116 [3]
  Reversion: 55%
HCT-116 [8]
  IC50: 10 nM
HCT-116 [9]
  IC50: 180 nM
HCT-116 [5]
  Reversion: 25%
HCT-116 [6]
  IC50: 15000 nM

## COc1ccc(CCNNC(=O)c2c(-c3ccc(OC)c(OC)c3)c3c4cc(OC)c(OC)cc4oc(=O)c3n2CCc2ccc(OC)c(OC)c2)cc1
HCT-116 [7]
  IC50: 10000 nM
HCT-116 [3]
  Reversion: 167%
HCT-116 [8]
  IC50: 2 nM
HCT-116 [9]
  IC50: 60 nM
HCT-116 [5]
  Reversion: 200%
HCT-116 [6]
  IC50: 20000 nM

## COC(=O)[C@H](CCCNNC(=O)c1c(-c2ccc(OC)c(OC)c2)c2c3cc(OC)c(OC)cc3oc(=O)c2n1CCc1ccc(OC)c(OC)c1)NC(=O)OCc1ccccc1
HCT-116 [7]
  IC50: 40000 nM
HCT-116 [3]
  Reversion: 100%
HCT-116 [8]
  IC50: 5 nM
HCT-116 [9]
  IC50: 100 nM
HCT-116 [5]
  Reversion: 80%
HCT-116 [6]
  IC50: 45000 nM

## COc1ccc(CCn2c(C(=O)NNCCCCCCSC(C)=O)c(-c3ccc(OC)c(OC)c3)c3c4cc(OC)c(OC)cc4oc(=O)c32)cc1OC
HCT-116 [7]
  IC50: 35000 nM
HCT-116 [3]
  Reversion: 50%
HCT-116 [8]
  IC50: 10 nM
HCT-116 [9]
  IC50: 200 nM
HCT-116 [5]
  Reversion: 25%
HCT-116 [6]
  IC50: 20000 nM

## COc1ccc(CCn2c(C(=O)NNCCc3ccc(F)cc3)c(-c3ccc(OC)c(OC)c3)c3c4cc(OC)c(OC)cc4oc(=O)c32)cc1OC
HCT-116 [7]
  IC50: 20000 nM
HCT-116 [3]
  Reversion: 100%
HCT-116 [8]
  IC50: 4 nM
HCT-116 [9]
  IC50: 100 nM
HCT-116 [5]
  Reversion: 100%
HCT-116 [6]
  IC50: 30000 nM

## COc1ccc(CCn2c(C(=O)N(C)C)c(-c3ccc(OC)c(OC)c3)c3c4cc(OC)c(OC)cc4oc(=O)c32)cc1OC
HCT-116 [7]
  IC50: 20000 nM
HCT-116 [3]
  Reversion: 100%
HCT-116 [8]
  IC50: 2 nM
HCT-116 [10]
  Reversion: 1000%
HCT-116 [11]
  IC50: 10 nM
HCT-116 [12]
  Reversion: 1000%
HCT-116 [9]
  IC50: 100 nM
HCT-116 [13]
  IC50: 0.2 nM
HCT-116 [5]
  Reversion: 100%
HCT-116 [6]
  IC50: 25000 nM

## COc1ccc(CCn2c(C(=O)NCCCCCCNC(=O)c3c(-c4ccc(OC)c(OC)c4)c4c5cc(OC)c(OC)cc5oc(=O)c4n3CCc3ccc(OC)c(OC)c3)c(-c3ccc(OC)c(OC)c3)c3c4cc(OC)c(OC)cc4oc(=O)c32)cc1OC
HCT-116 [7]
  IC50: > 100000 nM
HCT-116 [3]
  Reversion: 20%
HCT-116 [8]
  IC50: 30 nM
HCT-116 [9]
  IC50: 450 nM
HCT-116 [5]
  Reversion: 15%
HCT-116 [6]
  IC50: > 100000 nM

## COc1ccc(CCn2cc(-c3ccc(OC)c(OC)c3)c3c4cc(OC)c(OC)cc4oc(=O)c32)cc1OC
HCT-116 [8]
  IC50: 2 nM
HCT-116 [5]
  Reversion: 100%

## COc1ccc(CCN(C)CCCC(C#N)(c2ccc(OC)c(OC)c2)C(C)C)cc1OC (stereo not drawn)
HCT-116 [3]
  Reversion: 20%
HCT-116 [8]
  IC50: 20 nM
HCT-116 [9]
  IC50: 500 nM
HCT-116 [5]
  Reversion: 10%

## CC[C@]1(O)C[C@@H]2CN(CCc3c([nH]c4ccccc34)[C@@](C(=O)OC)(c3cc4c(cc3OC)N(C)[C@H]3[C@@](O)(C(=O)OC)[C@H](OC(C)=O)[C@]5(CC)C=CCN6CC[C@]43[C@@H]65)C2)C1 [VINBLASTINE]
HCT-116 [6]
  IC50: 4 nM
